The record followed here is patent US6967102B1, “Nitric oxide manipulation of muscle satellite cell activation” (University of Manitoba, priority 1999, dated 2005).

“Also recorded” adds a separate entry of the source.

One data set concerns dystrophic muscle. Description: Longer term systemic L-NAME treatment, severity of dystrophy in mdx mice. Particulars: systemic L-NAME (3 weeks / drinking water); young mdx animals; diaphragm, SOL, EDL, TA. Format: in vivo. From the text:
The present results address for the first time the initial steps of satellite cell activation. A single exposure to NOS inhibition had subtle effects on myotube formation that echo NO-stimulated myoblast fusion in vitro. Longer NOS inhibition reduced the effectiveness of repair and restricted its distribution, in agreement with the idea that shear-induced responses become attenuated longitudinally away from the injury. The significant negative effect of pharmacologic NOS inhibition on myogenic repair reported here was further extended by the recent preliminary studies on repair in NOS-I knockout mice (n≈2), and during longer term NOS inhibition in mdx mice (n≈22).
A study of 4 groups (n≈10/group) of mdx dystrophic mice treated with placebo, deflazacort, deflazacort plus L-NAME (a NOS inhibitor), or deflazacort plus L-arginine (a […]). Deflazacort was given by daily injection (ip) and L-NAME and L-arginine were given systemically in the drinking water.

A short description of data set [1]: Muscle weight to body weight (edema) and haemorrhage after crush injury, mdx mice. Format: in vivo. Particulars: L-NAME ip 30 min before crush.
Data set [2] has as its system satellite cells. As to the kind of experiment: Cell yield time course 0–30 min after crush injury of right tibialis anterior, normal mice. In kind it is in vivo, normal mice (C57BL/6).
The test system of another data set is regenerating mdx muscles. As to the kind of experiment: Muscle regeneration 6 days after crush injury, mdx mice. In kind it is in vivo. The settings on record: single L-NAME injection. As for the experimental part:
The time course of treatment effects was determined at two intervals; during the early response 0, 5, 10 and 30 min after injury, and over the longer term after 6 days recovery. Short term experiments were repeated at least twice. The longer term animals were maintained either on plain drinking water or water containing fresh L-NAME at 12.5 mg/100 ml (30 mg/kg/day), based on an intake of 6–7 ml/day/mouse (McIntosh et al., 1994. 17:444–453). In the longer term repair studies, there were 4 normal mice in each of saline- and L-NAME-treated groups. An additional 2 normal and 2 mdx mice were injected once before injury with L-NAME and given plain water for 6 days.
Sections and cultures were viewed on an Olympus microscope equipped with epifluorescence and phase contrast optics. Observations were based on systematic viewing of 2–4 longitudinal sections per muscle (separated by […]). In the case of muscle regenerating from crush injury, observations (without knowledge of treatment group) were made in pre-set fields of muscle from the central crush region, the adjacent regenerating region and the surviving region as reported (McIntosh et al. (1994) Muscle Nerve 17: 444–453). Representative photographs of muscle fibers and satellite cells were taken on over 700 frames of ASA 400 Fuji Sensia slide film. […]

Data set [3] relates to satellite cells. As to the kind of experiment: Cell yield time course 0–30 min after crush injury of right tibialis anterior, mdx mice. Format: in vivo. The settings on record: L-NAME.
For another data set, the target named is T1, NOS (Mus musculus, UniProt Q9Z0J4).
T1 construct: confirmed using NADPH-diaphorase enzyme histochemistry on frozen sections; from tissue; host or cells: frozen sections of tibialis anterior muscle from normal mice pretreated ip with saline or L-NAME
T1 sequence (Q9Z0J4 1-1463 isoform Q9Z0J4-5): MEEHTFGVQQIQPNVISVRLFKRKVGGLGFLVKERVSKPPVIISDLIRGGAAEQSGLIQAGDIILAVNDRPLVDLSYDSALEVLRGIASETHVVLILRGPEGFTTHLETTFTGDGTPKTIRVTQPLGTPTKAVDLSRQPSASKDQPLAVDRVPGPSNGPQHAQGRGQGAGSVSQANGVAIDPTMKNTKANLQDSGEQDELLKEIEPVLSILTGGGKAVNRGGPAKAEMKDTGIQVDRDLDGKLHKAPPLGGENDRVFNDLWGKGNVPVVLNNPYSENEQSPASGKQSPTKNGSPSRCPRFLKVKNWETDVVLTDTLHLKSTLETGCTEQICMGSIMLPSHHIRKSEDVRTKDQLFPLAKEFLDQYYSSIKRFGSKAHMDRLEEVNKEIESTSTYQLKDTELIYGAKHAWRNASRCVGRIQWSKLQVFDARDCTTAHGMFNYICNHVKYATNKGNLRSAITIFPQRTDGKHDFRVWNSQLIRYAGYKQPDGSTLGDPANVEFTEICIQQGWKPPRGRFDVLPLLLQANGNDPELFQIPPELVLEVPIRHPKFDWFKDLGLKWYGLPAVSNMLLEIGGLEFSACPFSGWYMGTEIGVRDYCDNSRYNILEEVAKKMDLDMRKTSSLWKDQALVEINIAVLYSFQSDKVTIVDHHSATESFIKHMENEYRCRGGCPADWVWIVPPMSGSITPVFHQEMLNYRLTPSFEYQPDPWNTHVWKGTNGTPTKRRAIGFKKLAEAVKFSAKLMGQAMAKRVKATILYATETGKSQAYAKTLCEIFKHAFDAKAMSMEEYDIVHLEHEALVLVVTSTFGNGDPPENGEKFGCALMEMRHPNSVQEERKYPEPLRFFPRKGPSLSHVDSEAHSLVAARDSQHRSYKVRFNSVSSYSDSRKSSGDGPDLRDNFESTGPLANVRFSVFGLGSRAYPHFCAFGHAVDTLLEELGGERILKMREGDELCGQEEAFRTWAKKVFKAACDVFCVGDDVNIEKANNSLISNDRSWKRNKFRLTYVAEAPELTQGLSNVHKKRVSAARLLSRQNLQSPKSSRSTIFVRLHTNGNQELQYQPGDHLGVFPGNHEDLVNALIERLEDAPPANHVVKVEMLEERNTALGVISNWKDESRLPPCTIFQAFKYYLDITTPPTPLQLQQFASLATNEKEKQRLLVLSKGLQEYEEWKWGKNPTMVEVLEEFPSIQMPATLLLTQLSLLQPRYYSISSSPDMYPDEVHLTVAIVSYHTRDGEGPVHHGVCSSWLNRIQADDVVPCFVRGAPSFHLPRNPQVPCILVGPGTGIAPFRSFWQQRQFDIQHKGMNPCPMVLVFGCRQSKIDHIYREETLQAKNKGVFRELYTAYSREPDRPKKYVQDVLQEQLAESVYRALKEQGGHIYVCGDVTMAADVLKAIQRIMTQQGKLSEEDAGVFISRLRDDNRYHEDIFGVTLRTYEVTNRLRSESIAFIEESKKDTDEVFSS
As to the kind of experiment: NADPH-diaphorase enzyme histochemistry of NOS activity on muscle sections. In kind it is in vivo, mice. As for the experimental part:
Sections ([…]) were collected on glass slides and stained with toluidine blue. The inhibition of NOS enzyme activity by L-NAME treatment 30 min. before crush was confirmed using NADPH-diaphorase enzyme histochemistry on frozen sections with jejunal epithelium as the positive control, according to Beesley (1995) Histochem. J. 27: 757–769.
i) satellite cells are identified and examined for hypertrophy and position using immunostaining for two c-met receptor, m-cadherin, neural cell adhesion molecule (N-CAM or leu19) and CD34, as markers of muscle satellite precursor cells (Irintchev A, Zeschnigk M. Starzinski-Powitz A, and Wernig A. (1994). Dev. […] In other sections c-met and HGF colocalization are used to assess activation (after (Tatsumi R, Anderson J E, Nevoret C J, Halevy 0, and Allen R E. (1998). Dev. Biol. 194:114–128). Routine fluorescent or peroxidase-conjugated secondary antibodies are used to visualize labelled satellite cells. • ii) NOS activity are determined to assess the effect of treatments that manipulate NOS activity. […] This method is modified to study homogenized tissue NOS activity. • iii) NOS expression is determined using in situ hybridisation (and Northern blotting) with a riboprobe specific for NOS-Iμ (the muscle isoform of NOS-I), made with custom primers (Kobzik L, Reid M B, Bredt D S, and Stamler J S. (1994). […]

As to `COC(=O)[C@@H](N)CCCNC(=N)N[N+](=O)[O-]` [L-NAME, Nω-nitro-L-arginine methyl ester], the severity of dystrophy result in the data set with dystrophic muscle is “appeared to increase the severity of dystrophy; also recorded: makes dystrophy more severe”. Further, the “increase in RTA weight after injury” value in data set [1] is “abolished the increase in RTA weight for 30 min”. Also, the “time of delayed peak RTA yield after injury” value in the data set with satellite cells [2] (L-NAME 3 mg/kg, one experiment) is listed as less than 10 min. In addition, in the data set with satellite cells [2] (L-NAME 7.5 mg/kg), the “LTA cell yield at 10 min relative to 0 min” value is 2 fold and the “RTA cell yield at 10 min relative to 0 min” value came out at 3.5 fold. In addition, in the data set on satellite cells [2] (L-NAME 7.5 mg/kg ip 30 min before crush), the “time after injury until which the increased RTA cell yield is delayed” value is given as 10 min. Moreover, in the data set on satellite cells [2] (L-NAME 7.5 mg/kg ip 30 min before crush, 0 min), the “initial injury-induced rise in RTA cell yield” value is on record as “preventing the initial injury-induced rise in RTA yield; also recorded: absent after L-NAME”. Moreover, in the data set with satellite cells [2] (L-NAME 7.5 mg/kg, 0 min), the “LTA cell yield lower than in saline-treated mice” value was 15%, the “RSOL cell yield lower than in saline-treated mice” value was found to be 50% and the “fewer cells isolated from RTA than LTA” value was 30%. Further, the “time of delayed peak RTA yield after injury” value in the data set on satellite cells [2] (L-NAME 10 or 12.5 mg/kg, one experiment at each dose) was more than 10 min. Further, in the data set with satellite cells [2] (L-NAME ip 30 min before crush), the “peak cell yield in RTA” value is listed as “delayed (not reduced)” and the “peak in cell yield from LTA (at 10 min.)” value was “reduced but not delayed; also recorded: reduced by L-NAME treatment”. Besides, in the data set on regenerating mdx muscles (6 days), the “new myotubes in continuity with satellite cells, anchored inside external lamina sheaths” value is on record as “roughly 5%”. Further, the “regenerating muscle over 6 days” value in the data set on regenerating mdx muscles (n=2) is reported as “subtle changes in regenerating mdx muscles”. Moreover, in the data set with satellite cells [3], the “increase of LTA cell yield at 10 min” value stood at 50%. In the data set on satellite cells [3] (0–30 min), the RSOL cell yield result was “did not change over time”; the “RTA cell yield time course” value is “rose slowly over the 30 min. time course; also recorded: decreased and further delayed the peak of myogenic cells; also recorded: prevented the increased RTA yield at 10 min”. Further, the “duration of decreased NOS activity” value at NOS (L-NAME, after ip injection) is 40 min. Also, the “NOS activity by NADPH-diaphorase staining” value on NOS (pre-treatment with L-NAME, muscle sections) is on record as “inhibited NOS activity”.
